Results as given in paper PMC6710338, “Turning a Collagenesis-Inducing Peptide Into a Potent Antibacterial and Antibiofilm Agent Against Multidrug-Resistant Gram-Negative Bacteria” (Frontiers in Microbiology, 2019).
Peptide text beside a SMILES is read from it.

Legend:
HFF-1 cells = format: cell-based, human; details: 72 h
Protocol: Immortalized human foreskin fibroblasts (HFF-1) were grown as a monolayer from passage number 8–16. For routine maintenance, HFF-1 cells were cultured in Dulbecco’s Modified Eagle Medium (DMEM, from Cell Lines Service) supplemented with 15% fetal bovine serum (FBS, from CLS) and 1% antibiotic/antimycotic solution (100 units/mL of penicillin, 100 μg/mL of streptomycin and 0.25 μg/mL of amphotericin B, from Sigma-Aldrich, St. Louis, MO, United States) at 37°C in an humidified atmosphere with 5% CO2. Cells were harvested by trypsinization [0.25% (w/v) trypsin-EDTA4Na, Sigma-Aldrich, St. Louis, MO, United States] twice a week.
The cytotoxicity of synthetic peptides to HFF-1 cells was evaluated using the standard MTT assay. Briefly, cells were seeded at a density of 8 × 10^4 cells/well onto 96-well plate and incubated at 37°C in a 5% CO2 atmosphere. Cells were allowed to grow for 48 h, and serially diluted peptide solutions (0.78–100 μM) were added to the wells. Then, cells were incubated for 72 h at 37°C, after which wells were washed once with phosphate buffered saline (PBS, Sigma-Aldrich, St. Louis, MO, United States), followed by addition of a 0.45 mg/mL MTT solution to each well. Crystals were allowed to form for 1.5 h. Reaction was stopped by rejecting the medium and addition of dimethylsulfoxide (DMSO, Sigma-Aldrich, St. Louis, MO, United States). Absorbance was read at 570 nm (Biotek PowerWave XS).
At the end of the cytotoxicity assays, the number of viable cells was never below that of initially plated cells. As such, data are represented as peptide concentrations causing 50% growth inhibition (IC50) on HFF-1 cells, rather than as lethal dosis values. IC50 values thus obtained are also included in Table 2.

[1] = test system: MDR K. pneumoniae isolates (KP004, KP007, KP010); test: Inhibition of biofilm formation, crystal violet assay; format: cell-based, Klebsiella pneumoniae; details: in TSB
Protocol: (§1) The ability of peptide 3.1-PP4 to inhibit the biofilm formation by three P. aeruginosa isolates (PA002, PA004, Pa3) and by three K. pneumoniae isolates (KP004, KP007 and KP010) was assessed at concentrations equal to the MIC, 1/2 × MIC and 1/4 × MIC in tryptic soy broth – (TSB – Liofilchem s.r.l., Italy) using the crystal violet assay as reported by [Gomes et al. (2014)]. Two independent experiments were performed in triplicate.
(§2) Some of the MDR isolates of P. aeruginosa and K. pneumoniae were randomly selected to form biofilms in the absence (controls) and presence (at MIC, 1/2 × MIC and 1/4 × MIC) of the peptide 3.1-PP4. In this assay, the test compounds were used at sub-inhibitory concentrations, since if they had been present at the MIC or higher concentrations, bacteria would be killed before starting to produce the biofilms.
(§3) FIGURE 1 Biofilm biomass quantitation of biofilms formed in the presence of peptide 3.1-PP4. Biofilms of three MDR P. aeruginosa (PA002, Pa3, and PA004) and of three MDR K. pneumoniae (KP004, KP007, and KP010) were formed in the presence of the peptide at three different concentrations, MIC, 1/2 × MIC, and 1/4 × MIC. Control biofilms were grown in absence of the peptide. Two independent experiments were performed in triplicate. Error bars represent SD. […]

[2] = test system: preformed biofilms of MDR K. pneumoniae isolates; test: Biofilm metabolic activity (MTT); format: cell-based, Klebsiella pneumoniae; details: 20 × MIC, 24 h at 37°C, absorbance 570 nm
Protocol: The respective control biofilms were equally formed but in absence of the peptide (only TSB medium was used). Afterward, the bacterial metabolic activity of biofilms was quantified after adding 3-(4,5-dimethylthiazole-2-yl)-2,5-diphenyl tetrazolium bromide (MTT, 0.5 mg/mL – Sigma-Aldrich, St. Louis, MO, United States) for 3 h at 37°C in the dark. DMSO was used to dissolve the formazan crystals formed and the absorbance at 570 nm was measured. Two independent experiments were performed in four replicates.
The influence of the peptide on the metabolic activity of preformed biofilms of one P. aeruginosa (PA004) and three K. pneumoniae (KP004, KP007, and KP010) isolates was also assessed, through a standard MTT assay.

E. faecalis ATCC 29212 = test: MIC, broth microdilution (CLSI), ATCC reference strain; format: cell-based, Enterococcus faecalis
Protocol: The minimum inhibitory concentration (MIC) of synthetic peptides was determined using the broth microdilution method in cation-adjusted Mueller-Hinton broth (MHB2 – Sigma-Aldrich, St. Louis, MO, United States), according to the recommendations of the Clinical and Laboratory Standards Institute ([CLSI, 2012]), against four reference strains, namely, P. aeruginosa ATCC 27853, E. coli ATCC 25922, S. aureus ATCC 25923 and Enterococcus faecalis ATCC 29212. MIC values of peptide 3.1-PP4 were also determined against MDR clinical isolates of P. aeruginosa (PA002, PA004, Pa3, Pa4), E. coli (Ec1, Ec2, EC001, EC002, EC003) and K. pneumoniae (KP004, KP007, KP010). The peptides were tested in the concentration range of 1–1024 μg/mL. The minimum bactericidal concentration (MBC) was determined as previously reported ([Bessa et al., 2018]). According to CLSI guidelines for antimicrobial susceptibility testing, MIC values were determined for all peptides against ATCC reference strains of two Gram-positive (S. aureus ATCC 25923 and E. faecalis ATCC 29212), and two Gram-negative (P. aeruginosa ATCC 27853 and E. coli ATCC 25922) bacterial species, and are shown in Table 2.

[3] = test system: MDR P. aeruginosa isolates (PA002, PA004, Pa3); test: Inhibition of biofilm formation, crystal violet assay; format: cell-based, Pseudomonas aeruginosa; details: in TSB
Protocol: as §1, §2, §3

- MIC (E. faecalis ATCC 29212; ATCC 29212): 33 µM
- MIC (E. faecalis ATCC 29212; E. faecalis ATCC 29212, broth microdilution in MHB2, CLSI, range tested 1–1024 μg/mL): 64 µg/mL
SMILES: CC(C)C[C@H](NC(=O)[C@H](Cc1c[nH]c2ccccc12)NC(=O)[C@H](CCCCN)NC(=O)[C@H](CC(C)C)NC(=O)[C@H](CC(C)C)NC(=O)[C@H](CCCCN)NC(=O)[C@@H](N)CCCCN)C(=O)N[C@@H](CC(C)C)C(=O)N[C@@H](CCCCN)C(=O)N[C@@H](CC(C)C)C(=O)N[C@@H](CC(C)C)C(=O)N[C@@H](CCCCN)C(=O)N[C@H](C(=O)N[C@H](C(=O)N[C@@H](CCCCN)C(=O)N[C@@H](CO)C(N)=O)[C@@H](C)O)[C@@H](C)O [Peptide 3.1-PP4] (H-KKLLKWLLKLLKTTKS-NH2; N-terminus assumed)
- IC50 (HFF-1 cells): 69 ± 5 µM
- biofilm formation (crystal violet absorbance at 595 nm) ([1]; peptide at MIC, K. pneumoniae isolates): no biofilm was actually produced
- biofilm formation (crystal violet absorbance at 595 nm) ([1]; peptide at sub-inhibitory concentrations (1/2 and 1/4 of the MIC), vs control biofilm): able to reduce the biofilm formed
- % reduction of metabolic activity in peptide-treated biofilms ([2]; isolate KP004, 24 h preformed biofilm): 79%
- % reduction of metabolic activity in peptide-treated biofilms ([2]; isolate KP007, 24 h preformed biofilm): 40%
- % reduction of metabolic activity in peptide-treated biofilms ([2]; isolate KP010, 24 h preformed biofilm): 77%
- biofilm formation (crystal violet absorbance at 595 nm) ([3]; peptide at 1/2 and 1/4 of the MIC, three P. aeruginosa isolates): does not significantly inhibit biofilm formation
- biofilm formation (crystal violet absorbance at 595 nm) ([3]; peptide at MIC, exception isolate PA002, two experiments in triplicate): no biofilm was actually produced
